Source: patent US8946268B2, “Modulators of HEC1 activity and methods therefor” (Taivex Therapeutics, Inc., priority 2010, dated 2015)
Where “and” joins values, the source holds several entries; their conditions need not be identical. Equal entries are not always repeated. Where two headings read alike, the source gives them in different places.

How the values were obtained:
[1] = Combination of Hec1 inhibitors with chemotherapeutic inhibitors; conditions: preliminary data
[2] = Pharmacokinetics in rats after i.v. injection; type: in vivo, SD rat
Protocol: (§1) Bioavailability: Selected compounds were administered to rats per os or via injection following well known procedures.

[3] = Pharmacokinetics in rats after oral administration; type: in vivo, SD rat; conditions: for MRT inf: read-out: MRT0-inf
Protocol: as §1

Hela = experiment: Antiproliferative activity (MTS assay), Hela; type: cell-based; conditions: Homo sapiens, HeLa, 96 h, Hela cells
Outline: (§2)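 Cells were dosed in triplicate after overnight attachment and incubated 96 h at 37 °C, with DMSO controls. Viability was read by MTS absorbance. Values come from concentration-response curves by linear regression, with GI50 corrected for time-zero cell count as [1−(T−T0)/(C−T0)]×100.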

K562 = experiment: Antiproliferative activity (MTS assay), K562; type: cell-based; conditions: Homo sapiens, K562, 96 h, K562 cells
Outline: as §2

MDA-MB-468 = experiment: Antiproliferative activity (MTS assay), MDA-MB-468; type: cell-based; conditions: Homo sapiens, MDA-MB-468, 96 h, MDA-MB-468 cells
Outline: as §2

MDA-MB-231 = experiment: Antiproliferative activity (MTS assay), MDA-MB-231; type: cell-based; conditions: Homo sapiens, MDA-MB-231, 96 h, MDA-MB-231 cells
Outline: as §2

[4] = i.v. 2 mg/kg, SD rat, individual rats No. 1-3, 2 mg/kg
[5] = Sprague-Dawley, rat, serum, po, 20 mg/kg, oral 20 mg/kg, 1% methyl-cellulose, SD rat, Mean
[6] = Sprague-Dawley, rat, serum, po, 20 mg/kg, oral 20 mg/kg, SD rat, individual rats No. 1-3
[7] = oral 20 mg/kg, SD rat, individual rats No. 1-3, 20 mg/kg
[8] = compound 95 i.v., SD rat, individual rats No. 1-3
[9] = compound 95 oral, SD rat, individual rats No. 1-3

For `COc1cccc2c1C(=O)c1c(O)c3c(c(O)c1C2=O)C[C@@](O)(C(=O)CO)C[C@@H]3O[C@H]1C[C@H](N)[C@H](O)[C@H](C)O1` [doxorubicin], the “effect in combination of Hec1 inhibitors with chemotherapeutic inhibitors” value (“effect in combination of Hec1 inhibitors” for short) [1] was “at most additive effect”.
With `CC[C@]1(O)C[C@H]2CN(CCc3c([nH]c4ccccc34)[C@@](C(=O)OC)(c3cc4c(cc3OC)N(C=O)[C@H]3[C@@](O)(C(=O)OC)[C@H](OC(C)=O)[C@]5(CC)C=CCN6CC[C@]43[C@@H]65)C2)C1` [vincristine] the “effect in combination of Hec1 inhibitors” value [1] was “synergistic effect”.
With `CC(=O)O[C@H]1C(=O)[C@@]2(C)[C@H]([C@H](OC(=O)c3ccccc3)[C@]3(O)C[C@H](OC(=O)[C@H](O)[C@@H](NC(=O)c4ccccc4)c4ccccc4)C(C)=C1C3(C)C)[C@]1(OC(C)=O)CO[C@@H]1C[C@@H]2O` [Taxol] the “effect in combination of Hec1 inhibitors” value [1] was “synergistic effect”.
With `CC[C@]1(O)C[C@@H]2CN(CCc3c([nH]c4ccccc34)[C@@](C(=O)OC)(c3cc4c(cc3OC)N(C)[C@H]3[C@@](O)(C(=O)OC)[C@H](OC(C)=O)[C@]5(CC)C=CCN6CC[C@]43[C@@H]65)C2)C1` [vinblastine] the “effect in combination of Hec1 inhibitors” value [1] was “synergistic effect”.
For `Cc1cc(OC(C)C)cc(C)c1-c1csc(NC(=O)c2ccncc2)n1` [Compound 82], the half-life ([2]; Sprague-Dawley, rat, serum, iv, 2 mg/kg, i.v. 2 mg/kg, 5% DMSO, 10% Cremophor, 85% WFI, SD rat, Mean) was 5.14 h, the C0 ([2]; Sprague-Dawley, rat, serum, iv, 2 mg/kg, i.v. 2 mg/kg, 5% DMSO, 10% Cremophor, 85% WFI, SD rat, Mean, read-out: C0) was 7020 ng/mL and the MRT inf ([2]; Sprague-Dawley, rat, serum, iv, 2 mg/kg, i.v. 2 mg/kg, 5% DMSO, 10% Cremophor, 85% WFI, SD rat, Mean, read-out: MRT0-inf) was 6.46 h. The C0 ([2]; Sprague-Dawley, rat, serum, iv, 2 mg/kg, i.v. 2 mg/kg, SD rat, individual rats No. 1-3, read-out: C0) was 8180 ng/mL, the C0 [2, 4] was 5590 ng/mL and 7282 ng/mL and the MRT0-inf [2, 4] was 8.80 h and 3.36 h and 7.22 h. For the same compound, the T1/2 [2, 4] was 6.85 h and 2.79 h and 5.78 h, the half-life [3, 5] was 4.41 h and the MRT inf [3, 5] was 7.73 h. The Tmax ([3]; Sprague-Dawley, rat, serum, po, 20 mg/kg, oral 20 mg/kg, 1% methyl-cellulose, SD rat, Mean, read-out: Tmax) was 4 h, the half-life [3, 6] was 4.53 h and the MRT inf [3, 6] was 7.71 h. The Tmax ([3]; Sprague-Dawley, rat, serum, po, 20 mg/kg, oral 20 mg/kg, SD rat, individual rats No. 1-3, read-out: Tmax) was 4 h, the MRT0-inf [3, 7] was 5.76 h and 9.72 h and the T1/2 [3, 7] was 2.94 h and 5.76 h.
`COc1ccc(Oc2cc(C)c(-c3csc(NC(=O)c4ccncc4)n3)c(C)c2)cc1` [Compound 95] gave an IC50 (Hela) of 50 nM, an IC50 (K562) of 30 nM and an IC50 (MDA-MB-468) of 40 nM. For the same compound, the IC50 (MDA-MB-231) was 30 nM, the MRT ([2]; Sprague-Dawley, rat, serum, iv, 2 mg/kg, compound 95 i.v., SD rat, individual rats No. 1-3, read-out: MRT) was 131 h and the half-life ([2]; Sprague-Dawley, rat, serum, iv, 2 mg/kg, compound 95 i.v., formulation and route otherwise identical to compound 82, SD rat, Mean) was 7.36 h. The C0 ([2]; Sprague-Dawley, rat, serum, iv, 2 mg/kg, compound 95 i.v., formulation and route otherwise identical to compound 82, SD rat, Mean, read-out: C0) was 3670 ng/mL, the MRT ([2]; Sprague-Dawley, rat, serum, iv, 2 mg/kg, compound 95 i.v., formulation and route otherwise identical to compound 82, SD rat, Mean, read-out: MRT) was 143 h and the C0 [2, 8] was 2519 ng/mL and 3144 ng/mL and 5356 ng/mL. For the same compound, the MRT [2, 8] was 189 h and 108 h, the MRT ([3]; SD, rat, serum, po, 20 mg/kg, compound 95 oral, SD rat, individual rats No. 1-3, read-out: MRT) was 4.4 h and the half-life ([3]; SD, rat, serum, po, compound 95 oral, formulation and route otherwise identical to compound 82, SD rat, Mean) was 10.9 h. It also gave an MRT ([3]; SD, rat, serum, po, compound 95 oral, formulation and route otherwise identical to compound 82, SD rat, Mean, read-out: MRT) of 4.24 h, a Tmax ([3]; SD, rat, serum, po, compound 95 oral, formulation and route otherwise identical to compound 82, SD rat, Mean, read-out: Tmax) of 3 h and a half-life ([3]; Sprague-Dawley, rat, serum, po, 20 mg/kg, compound 95 oral, SD rat, individual rats No. 1-3) of 9.96 h. The MRT [3, 9] was 4.38 h and 3.92 h, the T1/2 [3, 9] was 12.86 h and 9.75 h and the Tmax [3, 9] was 4.00 h and 1.00 h.
